## COc1cc(CNC(=O)CCCCCCC(C)C)ccc1O
In acetone, 299.49 K
  solubility (mole fraction): 0.193
In acetone, 300.47 K
  solubility (mole fraction): 0.203
In acetone, 302.34 K
  solubility (mole fraction): 0.224
In acetone, 303.46 K
  solubility (mole fraction): 0.236
In acetone, 304.58 K
  solubility (mole fraction): 0.249
In acetone, 305.69 K
  solubility (mole fraction): 0.256
In acetone, 306.75 K
  solubility (mole fraction): 0.269
In acetone, 308.78 K
  solubility (mole fraction): 0.287
In ethanol, 301.79 K
  solubility (mole fraction): 0.184
In ethanol, 303.35 K
  solubility (mole fraction): 0.196
In ethanol, 305.54 K
  solubility (mole fraction): 0.213
In ethanol, 307.86 K
  solubility (mole fraction): 0.233
In ethanol, 309.95 K
  solubility (mole fraction): 0.249
In ethanol, 311.23 K
  solubility (mole fraction): 0.258
In ethanol, 312.98 K
  solubility (mole fraction): 0.268
In ethanol, 314.44 K
  solubility (mole fraction): 0.278
In ethyl acetate, 302.07 K
  solubility (mole fraction): 0.307
In ethyl acetate, 304.12 K
  solubility (mole fraction): 0.33
In ethyl acetate, 305.29 K
  solubility (mole fraction): 0.342
In ethyl acetate, 306.48 K
  solubility (mole fraction): 0.354
In ethyl acetate, 307.69 K
  solubility (mole fraction): 0.369
In ethyl acetate, 308.81 K
  solubility (mole fraction): 0.379
In ethyl acetate, 310.65 K
  solubility (mole fraction): 0.397
In ethyl acetate, 312.79 K
  solubility (mole fraction): 0.415
In n-heptane, 298.43 K
  solubility (mole fraction): 0.000229
In n-heptane, 300.59 K
  solubility (mole fraction): 0.00026
In n-heptane, 302.85 K
  solubility (mole fraction): 0.000299
In n-heptane, 304.03 K
  solubility (mole fraction): 0.000318
In n-heptane, 305.69 K
  solubility (mole fraction): 0.000349
In n-heptane, 307.08 K
  solubility (mole fraction): 0.000378
In n-heptane, 308.84 K
  solubility (mole fraction): 0.000422
In n-heptane, 309.97 K
  solubility (mole fraction): 0.000451
In n-heptane, 311.04 K
  solubility (mole fraction): 0.00048
In n-heptane, 313.41 K
  solubility (mole fraction): 0.000549
In n-hexane, 296.14 K
  solubility (mole fraction): 0.000136
In n-hexane, 298.73 K
  solubility (mole fraction): 0.000159
In n-hexane, 300.87 K
  solubility (mole fraction): 0.000181
In n-hexane, 301.98 K
  solubility (mole fraction): 0.000196
In n-hexane, 303.09 K
  solubility (mole fraction): 0.00021
In n-hexane, 305.04 K
  solubility (mole fraction): 0.000238
In n-hexane, 307.13 K
  solubility (mole fraction): 0.000269
In n-hexane, 309.25 K
  solubility (mole fraction): 0.000309
In n-hexane, 310.68 K
  solubility (mole fraction): 0.00034
In n-hexane, 312.02 K
  solubility (mole fraction): 0.000374
In n-pentane, 297.26 K
  solubility (mole fraction): 0.000115
In n-pentane, 298.19 K
  solubility (mole fraction): 0.000122
In n-pentane, 299.27 K
  solubility (mole fraction): 0.00013
In n-pentane, 300.43 K
  solubility (mole fraction): 0.000142
In n-pentane, 301.54 K
  solubility (mole fraction): 0.000152
In water, 324.67 K
  solubility (mole fraction): 4.81e-05
In water, 325.03 K
  solubility (mole fraction): 5.24e-05
In water, 325.66 K
  solubility (mole fraction): 6.14e-05
In water, 326.29 K
  solubility (mole fraction): 7.19e-05
In water, 326.81 K
  solubility (mole fraction): 8.17e-05
In water, 327.37 K
  solubility (mole fraction): 9.26e-05

— BigSolDB 2.1
